The values that follow come from patent US20160326098A1, “Pharmaceutically Active Compound for Use as Anti-inflammatory Agent” (Pax Forschung GmbH, priority 2013, published 2016).

What all share (assay type): in vivo
One series deals with xanthine oxidase enzyme. The series can be described thus: Xanthine oxidase enzyme activity in tissue, mice with TNBS-induced colitis. The conditions noted are these: gastric and colon tissue, 1.11 mmol/kg, FIGS. 14a/14b. Here is the method:
(§1) Colonic inflammation was induced by intracolonic administration of TNBS (2,4,6-trinitrobenzenesulfonic acid) (40 mg/kg in 0.25 ml of 25% aqueous ethanol) through an 8-cm-long soft plastic catheter under transient diethylether anesthesia. In the sham-operated groups, only the vehicle for TNBS was administered. The animals were deprived of food, but not water, for 12 h before the enemas.
The XOR activity was determined in the ultrafiltered, concentrated supernatant by fluorometric kinetic assay based on the conversion of pterine to isoxanthopterine in the presence (total XOR) or absence (xanthine oxidase activity) of the electron acceptor methylene blue.
(§2) The above-described clinical studies were repeated with animals having colitis which was induced as described above. […] Two days after the enema the effects of the treatment were determined by measurement of body weight, blood gas analysis and biopsy. […] Surgery was performed to allow registration of the hemodynamic parameters at 1 h intervals for 6 h (cardiac output [CO] data were measured only at the end of the experiments). […] In addition, fluorescence confocal endomicroscopy was performed to examine the microvasculature and morphologic changes of the mucosa of the distal colon, and full-thickness tissue samples and venous blood samples were taken to determine the biochemical changes in the colon and plasma.

Series [1] is described as follows: Haematocrit in blood, rats with gastric injury without inflammation. The conditions noted are these: 1.11 mmol/kg; for percentage of haematocrit in the blood / haematocrit level, low haematocrit data group (severe bleeding with plasma and cell loss): vs control group H; for percentage of haematocrit in the blood: FIG. 18; for haematocrit level, low haematocrit data group (severe bleeding with plasma and cell loss): FIG. 20; for haematocrit level, high haematocrit data group (bleeding with plasma loss): vs sham group H, FIG. 19. Here is the method: The medicinal activity of the compound according to the invention and the pharmaceutical composition according to the invention was tested in a series of experiments performed on rats. The experiments were performed on male Sprague-Dawley rats (280-320 g) housed in plastic cages in a thermoneutral environment (21° C.±2° C.) with a 12 h dark-light cycle. The animals, fed on a normal diet with tap water ad libitum, were randomly allocated into experimental groups according to the feeding protocols.
Further experiments regarding the effect of a compound of formula (I) and a pharmaceutical composition comprising a compound of formula (I), respectively, on gastric injury without inflammation were conducted on rats. 15 animals were randomly allocated into three groups. Group H (n=5) served as sham-operated controls. Samples of all animals were drawn on day 1 of the clinical tests. On day 2 the animals of group I (n=5) were force-fed acetylsalicylic acid (ASS) (1.11 mmol/kg body weight). Group K (n=5) was force-fed 1.11 mmol/kg body weight of the compound according to the invention. Group H only received the respective solvent (25% ethanol in water). One day after the gavage, additional samples were drawn. Fluorescence confocal endomicroscopy was performed to examine the microvasculature and morphologic changes of the mucosa of the distal colon, and full-thickness tissue samples and venous blood samples were taken to determine the biochemical changes in the colon and plasma. The effects were determined by way of measurement of body weight, blood gas analysation and biopsy. ASS was chosen as a comparative example due to its structural similarity and its known activity as anti-inflammatory agent.
On the basis of the haematocrit measurements, the data can be divided into two groups:
a) high haematocrit level, indicating bleeding with plasma loss (FIG. 19); and b) low haematocrit level, indicating severe bleeding with plasma and cell loss (FIG. 20).

For another series, the system named is myeloperoxidase (MPO). The series can be described thus: Tissue myeloperoxidase activity, rats with gastric injury without inflammation. The conditions noted are these: gastric and colon tissue, one day after 1.11 mmol/kg, vs control group H, FIGS. 23a/23b. How it is done: Colon biopsies kept on ice were homogenized in phosphate buffer (pH 7.4) containing 50 mM Tris-HCl (Reanal, Budapest, Hungary), 0.1 mM EDTA, 0.5 mM dithiothreitol, 1 mM phenylmethylsulfonyl fluoride, 10 μg/ml soybean trypsin inhibitor, and 10 μg/ml leupeptin (Sigma Aldrich GmbH, Munich, Germany). The homogenate was centrifuged at 4° C. for 20 minutes at 24,000 g, and the supernatant was loaded into centrifugal tubes (Amicon Centricon-100; 100,000-molecular-weight cutoff ultrafilter, Millipore Corporation, Bedford, Mass.). The activity of myeloperoxidase (MPO) was measured on the pellet of the homogenate.
The activity of MPO as a marker of tissue leukocyte infiltration was measured on the pellet of the homogenate. Briefly, the pellet was resuspended in K3PO4 buffer (0.05 M; pH 6.0) containing 0.5% hexa-1,6-bis-decyltriethylammonium bromide. After three repeated freeze-thaw procedures, the material was centrifuged at 4° C. for 20 minutes at 24,000 g, and the supernatant was used for MPO determination. […] The reaction led to the hydrogen peroxide-dependent oxidation of tetramethylbenzidine, which could be detected spectrophotometrically at 450 nm (UV-1601 spetrophotometer; Shimadzu, Kyoto, Japan). Myeloperoxidase activities were measured at 37° C.; the reaction was stopped after 5 minutes by the addition of 0.2 ml of H2SO4 (2 M), and the resulting data were referred to the protein content. […]

Series [2] is described as follows: Body weight, rats with TNBS-induced colitis. The conditions noted are these: two days after enema, one day after 1.11 mmol/kg, FIG. 27. How it is done:
as §1, §2

The next series deals with colon inflammation. Briefly: Macroscopic score of colon inflammation, rats with TNBS-induced colitis. The conditions noted are these: 1.11 mmol/kg, Morris score 0-4, untreated colitis group class 3 to 4, FIG. 29.

Description for colon inflammation: Colonic inflammation was induced by intracolonic administration of TNBS (2,4,6-trinitrobenzenesulfonic acid) (40 mg/kg in 0.25 ml of 25% aqueous ethanol) through an 8-cm-long soft plastic catheter under transient diethylether anesthesia. In the sham-operated groups, only the vehicle for TNBS was administered. The animals were deprived of food, but not water, for 12 h before the enemas. […] The other animals only received the respective solvent again. Two days after the enema the effects of the treatment were determined by measurement of body weight, blood gas analysis and biopsy. The animals were anesthetized two days after colitis induction. Surgery was performed to allow registration of the hemodynamic parameters at 1 h intervals for 6 h (cardiac output [CO] data were measured only at the end of the experiments). Intravital videomicroscopy was performed at the end of the experiments to visualize the serosal microcirculation 3 cm distal from the cecum. In addition, fluorescence confocal endomicroscopy was performed to examine the microvasculature and morphologic changes of the mucosa of the distal colon, and full-thickness tissue samples and venous blood samples were taken to determine the biochemical changes in the colon and plasma. […]

As for `CC(=O)Oc1ccccc1C(=O)O` [ASS, acetylsalicylic acid, reference compound], the “activity of xanthine oxidase enzyme” value in the series on xanthine oxidase enzyme was “only a slight decrease in activity”. Further, in series [1], the “percentage of haematocrit in the blood” value is listed as “severe change in the haematocrit level”; the “haematocrit level, low haematocrit data group (severe bleeding with plasma and cell loss)” value is “severe drop”; the “haematocrit level, high haematocrit data group (bleeding with plasma loss)” value is “increase of the haematocrit level”. The “myeloperoxidase (MPO) activity” value with myeloperoxidase (MPO) is “increased”. Further, the “loss of body weight” value in series [2] is given as “severe loss in body weight”. Moreover, the “macroscopic score of colon inflammation” value in the series on colon inflammation is recorded as “slightly less severe symptoms”.

`CC(=O)Oc1ccccc1C(=O)NC(CO)(CO)CO` [compound according to the invention]: in the series with xanthine oxidase enzyme, the “activity of xanthine oxidase enzyme” value is given as “enzyme activity comparable to that of healthy animals”. In series [1], the “percentage of haematocrit in the blood” value is “No change in the haematocrit level”; the “haematocrit level, low haematocrit data group (severe bleeding with plasma and cell loss)” value is “no changes could be detected”; the “haematocrit level, high haematocrit data group (bleeding with plasma loss)” value is “no change in the haematocrit level”. Besides, the “myeloperoxidase (MPO) activity” value in the series with myeloperoxidase (MPO) is reported as “does not further enhance the inflammatory processes”. Moreover, in series [2], the “loss of body weight” value is given as “No weight loss”. For the same compound, the “macroscopic score of colon inflammation” value with colon inflammation is given as “only showed increased erythema”.
